In experiment [1] the target is T1, human 20S proteasome ChT-L activity.
T1 construct: purchased Boston Biochem
In words: 20S proteasome ChT-L activity inhibition assay (Suc-LLVY-AMC). Format: biochemical. As for the experimental part: (§1) Purified human 20S proteasome and the fluorogenic substrates Suc-LLVY-AMC, Z-Leu-Leu-Glu-AMC, and Ac-Arg-Leu-Arg-AMC used to test the ChT-L, PGPH-L, and T-L activity, respectively, were purchased from Boston Biochem (Cambridge, MA, USA).
(§2) Proteasome activity assays were performed in vitro by mixing 20S proteasome (2 nM) with 100 μM of the proper fluorogenic peptide in the assay buffer (i.e., 25 mM HEPES, 0.5 mM EDTA, pH 7.6) in a 384 multiwell black plate. […] A minimum of three replicates were performed for each data point. Data are expressed as normalized percentages of residual activity considering the slope of the control (fluorogenic peptide/proteasome in the absence of inhibitors) as 100% of proteasome activity. Dose–response plots of the residual proteasome activity in the presence of increasing concentration of inhibitor provides a quantitative estimate of its potency. […] The estimation of the IC50 is based on a nonlinear fit with the equation:2 [drawing 2]
(§3) The IC50 values and their standard errors were deduced from the fitting. […] The resulting catalytic parameter are Km, corresponding to the apparent affinity constant (or Michaelis–Menten constant) of substrate for the free enzyme (to form the ES complex), and kcat, corresponding to the velocity of the rate-limiting step during the enzymatic activity. […] The mechanism of inhibition of the 20S proteasome ChT-L activity by the inhibitors was analyzed by modified double-reciprocal plot, as from the following equations for the different inhibitory mechanisms:4a [drawing 4]

The target in experiment [2] is T2, human 20S proteasome T-L activity.
T2 construct: purchased Boston Biochem
In words: 20S proteasome T-L activity inhibition assay (Ac-Arg-Leu-Arg-AMC). Format: biochemical. As for the experimental part: as §1, §2, §3

The target of experiment [3] is T3, human 20S proteasome PGPH-L activity.
T3 construct: purchased Boston Biochem
In words: 20S proteasome PGPH-L activity inhibition assay (Z-Leu-Leu-Glu-AMC). Format: biochemical. Here is the method: as §1, §2, §3

The test system of experiment [4] is T1, human 20S proteasome ChT-L activity. The experiment is described as follows: Steady-state enzyme kinetics of ChT-L inhibition (Lineweaver-Burk plot). Format: biochemical. From the text:
Analysis of enzyme kinetics may provide valuable insights in the understanding of inhibition mechanisms. To this aim, we have addressed the inhibition mechanism of the title compound H2T4 by determining the ChT-L activity of the CP at different concentrations of substrate and inhibitor. Since H2T4 inhibits all the three proteolytic functions of the CP with a similar potency, one can assume that the inhibition mechanism is similar for all enzymatic activities.
Fig. 6 Double reciprocal Lineweaver–Burk plot of substrate enzymatic 20S processing in the absence of inhibitor (○) and in the presence of 0.5 μM (×), 1 μM (+), 3 μM (*), 10 μM (⊗) and 20 μM inhibitor (⊕) for various concentrations of the substrate Suc-LLVY-AMC (from 6 to 100 μM).
The IC50 values and their standard errors were deduced from the fitting. Data relative to CP activities at different substrate/inhibitor concentrations have been analyzed by a double reciprocal Lineweaver–Burk plot, according to the following equation:3 [drawing 3] where [E0] is the enzyme concentration, ν is the observed velocity (expressed as moles of substrate cleaved per time interval unit) and [S] is the substrate concentration. […] The mechanism of inhibition of the 20S proteasome ChT-L activity by the inhibitors was analyzed by modified double-reciprocal plot, as from the following equations for the different inhibitory mechanisms:4a [drawing 4] […]

The test system is the same in experiment [5]. In words: Pre-steady-state kinetics of ChT-L inhibition (time course of fluorescent product, Runge-Kutta simulation). It counts as biochemical. The note with it: 2 nM 20S, 100 μM Suc-LLVY-AMC; constrained to KI = k–I/k+I. As for the experimental part:
The kinetic parameters of H2T4 binding to the CP have also been determined as a function of time (as described in Experimental). Fig. 7 reports the time evolution of the fluorescent product obtained by mixing at t = 0 both the substrate (100 μM final concentration) and H2T4 at different concentrations, as reported in the figure legend; the fluorescent signal was transformed into molar concentrations of fluorescent product through a calibration curve resulting from the complete processing of known concentration of substrate. […]
The interaction of H2T4 with 20S proteasome has been also investigated from the pre-steady-state kinetic standpoint. Briefly, these assays were performed without incubation time, by direct addition of different concentrations of H2T4 in samples where the Ch-L activity was already being monitored. The extent and the rate of inhibition were determined by following the time-dependent fluorescent signal of the cleaved substrate for 25 additional minutes. Data have been analyzed according to a second-order Runge–Kutta simulation procedure based on a simple competitive inhibition mechanism, such as in Scheme 1.
The time evolution of each species reported in Scheme 1 was calculated at discrete time intervals dt. […]

For another experiment, the system named is T4, 20S proteasome.
T4 construct: purchased Boston Biochem
In words: Stopped-flow UV spectroscopy of H2T4 binding to 20S proteasome. Set-up: species or system human. The note with it: 421 nm, 37 °C. The source says: In order to find a closer correlation between experimental observations and molecular modeling we have carried out a kinetic investigation of the interaction between H2T4 and 20S proteasome by stopped-flow. […] Data have been analyzed according to the following equation1 [drawing 1] where ΔODobs is the observed optical density change at a given time, r is the total number of exponentials during the reaction time course, ΔODi is the optical density change corresponding to the exponential i, ki is the rate constant associated to the exponential i, t is the time.
Fig. 11 Optical density changes at 421 nm for the mixing at 37 °C of 1 nM 20S proteasome with different concentrations of H2T4, namely 1 μM (curve a), 2 μM (curve b) and 5 μM (curve c). Continuous lines correspond to the non-linear least-squares fitting of data with two exponentials according to eqn (1), employing parameters reported in Table 1.
However, it is important to outline that kinetics reported in Fig. 11 are characterized by a multiphasic pattern with different patterns of concentration dependence of the rate constants. […] Therefore, on the basis of molecular modeling studies, these kinetic data can be accounted for by assuming that there is a first faster interaction with the N-terminal tails of the α subunits, characterized by k1, likely corresponding to the first encountering of the porphyrin with the α-subunits plane in a perpendicular geometry (Fig. 10A). […] The values ≈0 for the dissociation rate constants (Table 1) simply means that the rate is very slow and the interaction is very strong.

Setting [6] is: read-out: IC50 ChT-L (Figure S1), figure inset, semi-log plot of residual CP activity.
[7] abbreviates: read-out: IC50 best-fit value, ChT-L activity (Table S1), nonlinear fit of dose-response plot.
Setting [8] is: read-out: IC50 T-L (Figure S1), figure inset, semi-log plot of residual CP activity.
Setting [9] is: read-out: IC50 best-fit value, T-L activity (Table S1), nonlinear fit of dose-response plot.
[10] abbreviates: read-out: IC50 PGPH-L (Figure S1), figure inset, semi-log plot of residual CP activity.
Setting [11] is: read-out: IC50 best-fit value, PGPH-L activity (Table S1), nonlinear fit of dose-response plot.

Each structure is given as a SMILES string. Read-outs that look alike come from different tables or passages of the source.

`C[n+]1ccc(-c2c3nc(c(-c4cc[n+](C)cc4)c4ccc([nH]4)c(-c4cc[n+](C)cc4)c4nc(c(-c5cc[n+](C)cc5)c5ccc2[nH]5)C=C4)C=C3)cc1` [H2T4, meso-tetrakis(4-N-methylpyridyl)-porphyrin]: the IC50 in experiment [1] (setting [6]) is 470 nM; in experiment [1] (setting [7]) it was 469 nM; in experiment [2] (setting [8]), 460 nM; in experiment [2] (setting [9]) it was 466 nM; in experiment [3] (setting [10]) it was 300 nM; in experiment [3] (setting [11]) it was 301 nM. For the same compound, in experiment [4] (Lineweaver-Burk plot), the inhibition mechanism entry was “competitive mechanism”. In addition, in experiment [4] (read-out: inhibitor affinity constant KI, Suc-LLVY-AMC 6 to 100 μM, fit with eqn (4a)), the inhibition constant (Ki) came to 360 nM. Also, the “k+I” value in experiment [5] is on record as 1.3 × 10^4 M^–1 s^–1. Further, the “k–I” value in experiment [5] is reported as 4.7 × 10^–3 s^–1. Also, the “off k1” value in the experiment with 20S proteasome (1 nM 20S, 1-5 μM H2T4) is “∼0 s^–1”. Also, in the experiment on 20S proteasome (1 nM 20S, 1-5 μM H2T4), the “off k2” value is “∼0 s^–1”. In addition, in the experiment on 20S proteasome (1 nM 20S, 1-5 μM H2T4), the “on k1” value was 5.65 (±0.74) × 10^4 M^–1 s^–1. Also, the “on k2” value with 20S proteasome (1 nM 20S, 1-5 μM H2T4) was 1.28 (±0.31) × 10^4 M^–1 s^–1. In addition, in the experiment with 20S proteasome (rate independent of porphyrin concentration), the k3 is 3.23 (±0.81) × 10^–3 s^–1.

Regarding `C[n+]1cccc(-c2c3nc(c(-c4ccc[n+](C)c4)c4ccc([nH]4)c(-c4ccc[n+](C)c4)c4nc(c(-c5ccc[n+](C)c5)c5ccc2[nH]5)C=C4)C=C3)c1` [meta-H2T4, meso-tetra(3-N-metil-pyridyl) porphyrin], the IC50 was 930 nM in experiment [1] (setting [6]); 931 nM in experiment [1] (setting [7]); 1160 nM in experiment [2] (setting [8]); 1160 nM in experiment [2] (setting [9]); 210 nM in experiment [3] (setting [10]); 211 nM in experiment [3] (setting [11]).
